Several values for one entry are separate records, joined by “and”; a condition that tells them apart may be missing. Identical values can stand only once. ± gives the expanded uncertainty stated by the source.
Conditions: Transpiration method

Cc1ccc([N+](=O)[O-])cc1 [1-methyl-4-nitrobenzene]
vapor or sublimation pressure (278.2 K, Crystal): 0.00067 ± 0.00014 kPa
vapor or sublimation pressure (279.6 K, Crystal): 0.0008 ± 0.00014 kPa
vapor or sublimation pressure (283.3 K, Crystal): 0.00113 ± 8e-05 kPa
vapor or sublimation pressure (288.2 K, Crystal): 0.00211 ± 0.00022 kPa
vapor or sublimation pressure (288.3 K, Crystal): 0.00196 ± 0.00013 kPa
vapor or sublimation pressure (290.3 K, Crystal): 0.00271 ± 0.00027 kPa
vapor or sublimation pressure (292.2 K, Crystal): 0.00326 ± 0.00029 kPa
vapor or sublimation pressure (293.2 K, Crystal): 0.00332 ± 0.00024 kPa
vapor or sublimation pressure (296.8 K, Crystal): 0.00539 ± 0.00042 kPa
vapor or sublimation pressure (298.2 K, Crystal): 0.00566 ± 0.00042 kPa
vapor or sublimation pressure (298.3 K, Crystal): 0.00599 ± 0.00047 kPa
vapor or sublimation pressure (301.4 K, Crystal): 0.00833 ± 0.00056 kPa
vapor or sublimation pressure (303.2 K, Crystal): 0.00937 ± 0.00064 kPa
vapor or sublimation pressure (304.3 K, Crystal): 0.011 ± 0.0008 kPa
vapor or sublimation pressure (307.4 K, Crystal): 0.015 ± 0.001 kPa
vapor or sublimation pressure (308.2 K, Crystal): 0.0151 ± 0.001 kPa and 0.0149 ± 0.001 kPa
vapor or sublimation pressure (310.3 K, Crystal): 0.0193 ± 0.0013 kPa
vapor or sublimation pressure (313.2 K, Crystal): 0.0252 ± 0.0017 kPa and 0.0239 ± 0.0015 kPa
vapor or sublimation pressure (314.3 K, Crystal): 0.0292 ± 0.002 kPa
vapor or sublimation pressure (315.2 K, Crystal): 0.0309 ± 0.002 kPa
vapor or sublimation pressure (315.7 K, Crystal): 0.033 ± 0.0022 kPa
vapor or sublimation pressure (316.2 K, Crystal): 0.0354 ± 0.0023 kPa
vapor or sublimation pressure (316.7 K, Crystal): 0.0359 ± 0.0023 kPa
vapor or sublimation pressure (317.2 K, Crystal): 0.0383 ± 0.0024 kPa
vapor or sublimation pressure (318.2 K, Crystal): 0.04 ± 0.0025 kPa and 0.0377 ± 0.0025 kPa
vapor or sublimation pressure (319.3 K, Crystal): 0.0438 ± 0.0029 kPa
vapor or sublimation pressure (320.3 K, Crystal): 0.0483 ± 0.0031 kPa
vapor or sublimation pressure (321.2 K, Crystal): 0.0523 ± 0.0033 kPa
vapor or sublimation pressure (322.2 K, Crystal): 0.0569 ± 0.0035 kPa
vapor or sublimation pressure (323.1 K, Crystal): 0.0544 ± 0.0036 kPa and 0.0572 ± 0.0038 kPa
vapor or sublimation pressure (323.3 K, Crystal): 0.0626 ± 0.004 kPa
vapor or sublimation pressure (324.3 K, Crystal): 0.0673 ± 0.0043 kPa
vapor or sublimation pressure (326.2 K, Liquid): 0.0797 ± 0.0049 kPa
vapor or sublimation pressure (328.1 K, Liquid): 0.0862 ± 0.0055 kPa and 0.0853 ± 0.0054 kPa
vapor or sublimation pressure (329.2 K, Liquid): 0.097 ± 0.0061 kPa
vapor or sublimation pressure (332.2 K, Liquid): 0.1207 ± 0.0075 kPa and 0.1198 ± 0.0074 kPa
vapor or sublimation pressure (333 K, Liquid): 0.117 ± 0.007 kPa and 0.113 ± 0.007 kPa
vapor or sublimation pressure (335.3 K, Liquid): 0.1411 ± 0.0089 kPa
vapor or sublimation pressure (338 K, Liquid): 0.162 ± 0.01 kPa and 0.155 ± 0.01 kPa
vapor or sublimation pressure (338.2 K, Liquid): 0.168 ± 0.011 kPa
vapor or sublimation pressure (341.2 K, Liquid): 0.1995 ± 0.012 kPa
vapor or sublimation pressure (343 K, Liquid): 0.216 ± 0.013 kPa and 0.21 ± 0.013 kPa
vapor or sublimation pressure (344.4 K, Liquid): 0.2417 ± 0.015 kPa
vapor or sublimation pressure (347.1 K, Liquid): 0.2802 ± 0.017 kPa
vapor or sublimation pressure (347.9 K, Liquid): 0.274 ± 0.018 kPa
vapor or sublimation pressure (348 K, Liquid): 0.29 ± 0.018 kPa
vapor or sublimation pressure (350.2 K, Liquid): 0.3388 ± 0.021 kPa
vapor or sublimation pressure (352.9 K, Liquid): 0.369 ± 0.031 kPa
vapor or sublimation pressure (353 K, Liquid): 0.374 ± 0.023 kPa
vapor or sublimation pressure (353.2 K, Liquid): 0.4024 ± 0.033 kPa
vapor or sublimation pressure (357.9 K, Liquid): 0.483 ± 0.03 kPa
vapor or sublimation pressure (358 K, Liquid): 0.504 ± 0.032 kPa
vapor or sublimation pressure (362.9 K, Liquid): 0.622 ± 0.039 kPa
vapor or sublimation pressure (363 K, Liquid): 0.66 ± 0.042 kPa
vapor or sublimation pressure (367.9 K, Liquid): 0.841 ± 0.052 kPa and 0.793 ± 0.049 kPa

Cc1ccccc1[N+](=O)[O-] [2-nitrotoluene]
vapor or sublimation pressure (278.3 K, Liquid): 0.00328 ± 0.00023 kPa
vapor or sublimation pressure (278.4 K, Liquid): 0.0032 ± 0.00023 kPa
vapor or sublimation pressure (283.3 K, Liquid): 0.00526 ± 0.00038 kPa and 0.00502 ± 0.00036 kPa
vapor or sublimation pressure (288.3 K, Liquid): 0.00806 ± 0.00056 kPa and 0.00804 ± 0.00056 kPa
vapor or sublimation pressure (293.2 K, Liquid): 0.0124 ± 0.0008 kPa and 0.0119 ± 0.0008 kPa
vapor or sublimation pressure (298.2 K, Liquid): 0.0181 ± 0.0012 kPa and 0.0175 ± 0.0012 kPa
vapor or sublimation pressure (303.1 K, Liquid): 0.0259 ± 0.0017 kPa
vapor or sublimation pressure (303.2 K, Liquid): 0.0273 ± 0.0017 kPa
vapor or sublimation pressure (308.1 K, Liquid): 0.0381 ± 0.0025 kPa
vapor or sublimation pressure (308.2 K, Liquid): 0.0391 ± 0.0025 kPa
vapor or sublimation pressure (313.1 K, Liquid): 0.0563 ± 0.0035 kPa and 0.0555 ± 0.0035 kPa
vapor or sublimation pressure (318 K, Liquid): 0.0765 ± 0.0048 kPa
vapor or sublimation pressure (318.1 K, Liquid): 0.081 ± 0.005 kPa
vapor or sublimation pressure (323 K, Liquid): 0.108 ± 0.007 kPa

Cc1cccc([N+](=O)[O-])c1 [3-nitrotoluene]
vapor or sublimation pressure (290.6 K, Liquid): 0.00648 ± 0.00047 kPa
vapor or sublimation pressure (293.3 K, Liquid): 0.00842 ± 0.00058 kPa
vapor or sublimation pressure (296.3 K, Liquid): 0.0103 ± 0.0007 kPa
vapor or sublimation pressure (298.2 K, Liquid): 0.012 ± 0.001 kPa
vapor or sublimation pressure (299.2 K, Liquid): 0.0127 ± 0.0008 kPa and 0.0133 ± 0.001 kPa
vapor or sublimation pressure (302.2 K, Liquid): 0.0163 ± 0.001 kPa
vapor or sublimation pressure (302.3 K, Liquid): 0.0168 ± 0.001 kPa
vapor or sublimation pressure (303.2 K, Liquid): 0.0176 ± 0.0012 kPa and 0.0173 ± 0.0012 kPa
vapor or sublimation pressure (305.3 K, Liquid): 0.0211 ± 0.0015 kPa
vapor or sublimation pressure (308.2 K, Liquid): 0.0259 ± 0.0017 kPa [middle of 4 runs]
vapor or sublimation pressure (308.3 K, Liquid): 0.0267 ± 0.0017 kPa
vapor or sublimation pressure (311.4 K, Liquid): 0.0335 ± 0.0022 kPa
vapor or sublimation pressure (313.2 K, Liquid): 0.037 ± 0.0023 kPa and 0.0363 ± 0.0023 kPa and 0.0361 ± 0.0023 kPa
vapor or sublimation pressure (314.3 K, Liquid): 0.0414 ± 0.0027 kPa
vapor or sublimation pressure (317.2 K, Liquid): 0.0498 ± 0.0032 kPa
vapor or sublimation pressure (318.1 K, Liquid): 0.0516 ± 0.0033 kPa
vapor or sublimation pressure (318.2 K, Liquid): 0.0535 ± 0.0035 kPa and 0.0524 ± 0.0033 kPa
vapor or sublimation pressure (320.2 K, Liquid): 0.0607 ± 0.0038 kPa
vapor or sublimation pressure (323.1 K, Liquid): 0.0743 ± 0.0047 kPa and 0.0718 ± 0.0045 kPa
vapor or sublimation pressure (323.2 K, Liquid): 0.0732 ± 0.0047 kPa and 0.0749 ± 0.0048 kPa
vapor or sublimation pressure (328.1 K, Liquid): 0.103 ± 0.007 kPa
vapor or sublimation pressure (333.1 K, Liquid): 0.138 ± 0.008 kPa
vapor or sublimation pressure (338 K, Liquid): 0.187 ± 0.012 kPa

From the NIST ThermoML archive (doi:10.1016/j.jct.2017.03.029)
